In US20150111934A1, “CRYSTALLINE FORMS OF AN ADRENERGIC AGONIST” (DIPHARMA FRANCIS S.R.L., priority 2013, published 2015):

Assays:
[1] = physchem; conditions: 25 °C, water
[2] = cited from earlier work; for physical stability of the crystalline form: prior art forms of U.S. Pat. No. 7,342,117
[3] = solubility in water

Row | SMILES | physical stability of the crystalline form [2] | solubility in water (in words) [3] | also measured
1 | CC(=O)O.Nc1nc(CC(=O)Nc2ccc(CCNC[C@H](O)c3ccccc3)cc2)cs1 [Mirabegron acetate salt, 2-(2-amino-1,3-thiazol-4-yl)-N-[4-(2-{[(2R)-2-hydroxy-2-phenylethyl]amino}ethyl)phenyl]acetamide acetate salt] |  |  | solubility [1]: ~100 mg/mL
2 | Nc1nc(CC(=O)Nc2ccc(CCNC[C@H](O)c3ccccc3)cc2)cs1 [Crystalline form α of Mirabegron, (R)-2-(2-Aminothiazol-4-yl)-4′-[2-[(2-hydroxy-2-phenylethyl)amino]ethyl]acetanilide] | stable solid form | practically insoluble in water | 
3 | Nc1nc(CC(=O)Nc2ccc(CCNC[C@H](O)c3ccccc3)cc2)cs1 [form β, (R)-2-(2-Aminothiazol-4-yl)-4′-[2-[(2-hydroxy-2-phenylethyl)amino]ethyl]acetanilide] | metastable polymorph |  | 
4 | Nc1nc(CC(=O)Nc2ccc(CCNC[C@H](O)c3ccccc3)cc2)cs1 [Mirabegron base, (R)-2-(2-Aminothiazol-4-yl)-4′-[2-[(2-hydroxy-2-phenylethyl)amino]ethyl]acetanilide] |  | almost wholly insoluble in water | 
5 | Cl.Cl.Nc1nc(CC(=O)Nc2ccc(CCNCC(O)c3ccccc3)cc2)cs1 (stereo not drawn) |  |  | hygroscopicity and stability of the crystalline salt ([2]; as demonstrated in U.S. Pat. No. 7,342,117): highly hygroscopic and unstable
